{"source": "patent US12173320B2", "about": "“Production of red blood cells and platelets from stem cells” (BOSTON MEDICAL CENTER CORPORATION, priority 2012, dated 2024)", "key": {"[1]": {"tested_on": "AhR (CYP1B1 target gene expression) in iPSCs", "assay": "Quantitative RT-PCR of AhR target gene CYP1B1 in iPSCs", "format": "cell-based, human", "protocol": "RNA was extracted using the RNeasy kit (Qiagen) according to the manufacturer's instructions and DNase treated using the DNA-free kit (Ambion AM1906). Reverse transcription into cDNA was performed using the High Capacity cDNA Reverse Transcription Kit (Applied Biosystems 4368814). Quantitative (real time) PCR amplification of cDNA was performed using Taqman probes for AHR (Hs00169233 ml), CYP1B1 (Hs002382916 sl), HBA (Hs00361191 gl), HBB (Hs00758889 sl), HBG (Hs01629437 sl), vWF (Hs00169795 ml), PF4 (Hs00427220 gl), NF-E2 (Hs00232351 ml) and CD62P (Hs00927900 ml) and run on the Applied Biosystems StepOne machine. […]\nTo characterize AhR expression and functionality in both undifferentiated iPSCs and directly differentiated MEPs, AhR protein levels were determined via Western blot in these populations. AhR receptor was robustly expressed in day 30 and day 60 MEPs (FIG. 4A). However, AhR protein was not detected by western blotting in iPSC populations, and we postulated that AhR was expressed at extremely low levels in iPSCs, i.e., below the level of detectability with the antibodies used for Western blots. To test this hypothesis, the ability of FICZ to induce a prototypic AhR-target gene, CYPIB1, in iPSCs or, as a positive control, MEPs was assessed by quantitative RT-PCR."}, "[2]": {"tested_on": "iPSC-derived MEPs", "assay": "Immunophenotyping of MEP lineage specification (CD235, CD71, CD41 FACS)", "format": "cell-based, human", "details": "MEPs in feeder-free conditions, continuous FICZ, day 15 to 30 and later", "protocol": "Roughly 10^5 cells were collected, spun, and re-suspended in 0.5% BSA in PBS. Samples were incubated for 30 min at ambient temperature with human antibodies including CD41a-FITC (BD 555466), CD235-PE (BD 555570), CD71-FITC (BD 555536), washed and spun at 3300 rpm for 7 min, and re-suspended in 0.5% BSA in PBS with 1 ug/ml Propidium Iodide. Samples were run on a BD FACScalibur using Cellquest Pro software and analyzed via FloJo 8.7. For ploidy analysis, cells were treated with 1.5% NP-40 (Boston Bioproducts P-872) and 62.5 ug/ml Propidium Iodide in PBS immediately before FACScalibur interrogation. For murine bone marrow, samples were first incubated for 5 min at ambient temperature with murine conjugated antibody CD16/32 (BD 553142) before a 30 min incubation with c-Kit-PE (BD 553355), CD41a-FITC (BD 553848), Ter119-PE (BD 553673). For cell viability assays, 2-3×10 ^5 cells were collected, re-suspended in 8.8 ug/ml Hoecsht 33342 in PBS supplemented with 5% FBS. Samples were then incubated in the dark at 37° C. for 15 min, washed, and re-suspended in 1 ug/ml Propidium Iodide in 5% FBS. Samples were run on an LSR-II machine with FACSDiva software and analyzed via FloJo 8.7.\nIn our previous studies in which we noted exponential expansion of iPSC-derived MEPs (FIG. 3), the AhR-mediated effect that we noted allowed us to culture cells for extended periods of time (>120 days). […]"}, "[3]": {"tested_on": "red cell-depleted bone marrow from C57BL/6 mice", "assay": "MEP production in murine bone marrow culture (FACS)", "format": "cell-based, mouse", "details": "0.2 μM FICZ, 3 days, versus vehicle", "protocol": "Representative FACS analysis dot plots of red cell depleted C57B6 bone marrow grown for 3 days in +/−0.2 μM FICZ. 1×10^5 cells were initially treated with CD16/32 Fc receptor block, followed by directly conjugated monoclonal antibodies for the designated markers.\nRoughly 10^5 cells were collected, spun, and re-suspended in 0.5% BSA in PBS. Samples were incubated for 30 min at ambient temperature with human antibodies including CD41a-FITC (BD 555466), CD235-PE (BD 555570), CD71-FITC (BD 555536), washed and spun at 3300 rpm for 7 min, and re-suspended in 0.5% BSA in PBS with 1 ug/ml Propidium Iodide. Samples were run on a BD FACScalibur using Cellquest Pro software and analyzed via FloJo 8.7. For ploidy analysis, cells were treated with 1.5% NP-40 (Boston Bioproducts P-872) and 62.5 ug/ml Propidium Iodide in PBS immediately before FACScalibur interrogation. For murine bone marrow, samples were first incubated for 5 min at ambient temperature with murine conjugated antibody CD16/32 (BD 553142) before a 30 min incubation with c-Kit-PE (BD 553355), CD41a-FITC (BD 553848), Ter119-PE (BD 553673). For cell viability assays, 2-3×10 ^5 cells were collected, re-suspended in 8.8 ug/ml Hoecsht 33342 in PBS supplemented with 5% FBS. […] Samples were run on an LSR-II machine with FACSDiva software and analyzed via FloJo 8.7. […]"}, "[4]": {"assay": "In vivo blood cell counts (Hemavet) in normal mice", "design": "species or system mouse", "protocol": "C57B16 mice were injected daily intraperitoneally with FICZ suspended in vegetable oil using a weekly dose escalation scheme (Week 1: 1 mg/kg; Week 2: 2 mg/kg; Week 3: 4 mg/kg). Blood cell counts were assayed by Hemavet quantification of peripheral blood bleeds, at all 3 time points (Day 7, 14, and 21). Following the 3 week time point, mice were sacrificed and livers and spleens harvested for quantitative RT-PCR analyses.\nTo determine if FICZ treatment or whole animals would affect RBC or platelet production, C57B16 mice were injected daily intraperitoneally with FICZ suspended in vegetable oil using a weekly dose escalation scheme (Week 1: 1 mg/kg; Week 2: 2 mg/kg; Week 3: 4 mg/kg). […] Following the 3 week time point, mice were sacrificed and livers and spleens harvested."}, "[5]": {"details": "C57B16 mice, daily i.p. dose escalation"}}}
{"smiles": "O=Cc1c2c(cc3c1=Nc1ccccc1-3)=Nc1ccccc1-2", "note": "[FICZ, 6-formylindolo[3,2-b]carbazole]", "values": [{"measurement": "CYP1B1 expression", "setting": "[1]", "value": "statistically significant increases"}, {"measurement": "erythroid specification (CD71 / CD235 expression)", "setting": "[2]", "value": "progressive erythroid specification and maturation"}, {"measurement": "CD41+ Ter119+ MEPs in culture", "setting": "[3]", "value": "distinct populations"}, {"measurement": "red blood cell (RBC) counts", "setting": "[4]; [5]", "value": "None of the mice in the study showed significant variations"}, {"measurement": "white blood cell (WBC) counts", "setting": "[4]; [5]", "value": "None of the mice in the study showed significant variations"}, {"measurement": "platelet counts", "setting": "[4]; C57B16 mice, daily i.p., 1, 2, 4 mg/kg weekly escalation, Day 7, 14 and 21, versus mock or vehicle", "value": "increased platelet counts"}, {"measurement": "platelet response", "setting": "[4]; one mouse immediately exposed to higher doses (4 mg/kg), no week 1 escalation", "value": "more immediate and prolific platelet response"}]}
